Strand notation (5' to 3'): a small letter for the sugar, then the base; units joined by * are phosphorothioate-linked, units joined directly phosphodiester-linked; [ ] holds rarer units or linkages, { } end groups; capitals alone tell only the bases. e = 2'-O-(2-methoxyethyl) (MOE); [5mC] = 5-methylcytosine; d = 2'-deoxy (DNA)
What was measured:
Factor 11 protein = Factor 11 protein in monkey plasma by sandwich ELISA (Example 46); assay type: in vivo, cynomolgus monkeys; details: cynomolgus monkeys, 25 mg/kg
Summary of the method: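 Monkeys (2 male, 2 female per group) dosed s.c. with antisense oligonucleotide at 25 mg/kg, three times weekly in week 1 then twice weekly through week 8; PBS controls. Plasma Factor 11 measured by sandwich ELISA (1:50 dilution, OPD, 490 nm); expressed as % reduction versus PBS.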

[1] = Tolerability in Sprague-Dawley rats: kidney function (Example 44); assay type: in vivo; details: 50 mg/kg s.c. twice per week for 6 weeks
[2] = Hematology assays in cynomolgus monkeys (Example 46); assay type: in vivo
Summary of the method: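 Two male and two female monkeys per group received antisense oligonucleotide subcutaneously at 25 mg/kg, three times weekly in week 1 then twice weekly through week 8; PBS controls dosed identically. Blood sampled pre-dose and repeatedly during dosing for PT, aPTT and hematologic factors; necropsy on day 55.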

[3] = Tolerability in CD1 mice: body weight and organ weight (Example 43); assay type: in vivo; details: 50 mg/kg s.c. twice per week for 6 weeks, end of study

Q: Which “Factor 11 protein levels in plasma” value (Factor 11 protein) does the source give for “ISIS 449709: 3-8-3, 4-8-4, 2-10-2, 3-10-3 or 4-10-4 MOE microwalk gapmer (Table 46) (antisense eG*e[5mC]*eA*e[5mC]*dA*dG*dT*dT*dT*d[5mC]*dT*dG*dG*d[5mC]*eA*eG*eG*e[5mC])” here?
A: time-dependent decrease in protein levels

Q: What about the BUN ([1]; plasma) of the same substance?
A: 24 mg/dL

Q: What about the Creatinine ([1]; plasma) of the same substance?
A: 0.4 mg/dL

Q: What about the Urine protein/creatinine ratio ([1]; urine) of the same substance?
A: 3.4

Q: What about the HCT ([2]; Day 17) of the same substance?
A: 43%

Q: What about the MCH ([2]; Day 17) of the same substance?
A: 22.5 pg

Q: And the MCHC ([2]; Day 17)?
A: 30.7 g/dL

Q: What about the MCV ([2]; Day 17) of the same substance?
A: 73 fL

Q: And the RBC count ([2]; Day 17)?
A: 5.9e+06 µL⁻¹

Q: And the WBC count ([2]; Day 17)?
A: 11000 µL⁻¹

Q: And the hemoglobin content ([2]; Day 17)?
A: 13.2 g/dL

Q: What about the monocytes ([2]; Day 17) of the same substance?
A: 3.0%

Q: What about the neutrophils ([2]; Day 17) of the same substance?
A: 89%

Q: What about the platelet count ([2]; Day 17) of the same substance?
A: 449 ×100/μL

Q: What about the HCT ([2]; Day 31) of the same substance?
A: 42%

Q: What about the MCH ([2]; Day 31) of the same substance?
A: 22.2 pg

Q: And the MCHC ([2]; Day 31)?
A: 30.7 g/dL

Q: What about the MCV ([2]; Day 31) of the same substance?
A: 73 fL

Q: What about the RBC count ([2]; Day 31) of the same substance?
A: 5.9e+06 µL⁻¹

Q: And the WBC count ([2]; Day 31)?
A: 11000 µL⁻¹

Q: And the hemoglobin content ([2]; Day 31)?
A: 13.1 g/dL

Q: And the monocytes ([2]; Day 31)?
A: 2.8%

Q: What about the neutrophils ([2]; Day 31) of the same substance?
A: 81%

Q: What about the platelet count ([2]; Day 31) of the same substance?
A: 471 ×100/μL

Q: And the HCT ([2]; Day 45)?
A: 41%

Q: And the MCH ([2]; Day 45)?
A: 21.0 pg

Q: And the MCHC ([2]; Day 45)?
A: 31.1 g/dL

Q: And the MCV ([2]; Day 45)?
A: 71 fL

Q: What about the RBC count ([2]; Day 45) of the same substance?
A: 5.7e+06 µL⁻¹

Q: What about the WBC count ([2]; Day 45) of the same substance?
A: 11000 µL⁻¹

Q: What about the hemoglobin content ([2]; Day 45) of the same substance?
A: 12.6 g/dL

Q: And the monocytes ([2]; Day 45)?
A: 3.6%

Q: And the neutrophils ([2]; Day 45)?
A: 77%

Q: What about the platelet count ([2]; Day 45) of the same substance?
A: 418 ×100/μL

Q: What about the HCT ([2]; Day 55) of the same substance?
A: 40%

Q: And the MCH ([2]; Day 55)?
A: 22.0 pg

Q: And the MCHC ([2]; Day 55)?
A: 31.2 g/dL

Q: And the MCV ([2]; Day 55)?
A: 71 fL

Q: What about the RBC count ([2]; Day 55) of the same substance?
A: 5.7e+06 µL⁻¹

Q: And the WBC count ([2]; Day 55)?
A: 10000 µL⁻¹

Q: And the hemoglobin content ([2]; Day 55)?
A: 12.5 g/dL

Q: What about the monocytes ([2]; Day 55) of the same substance?
A: 3.4%

Q: What about the neutrophils ([2]; Day 55) of the same substance?
A: 115%

Q: And the platelet count ([2]; Day 55)?
A: 441 ×100/μL

Q: And the HCT ([2]; Day-5)?
A: 42%

Q: What about the MCH ([2]; Day-5) of the same substance?
A: 22.3 pg

Q: What about the MCHC ([2]; Day-5) of the same substance?
A: 30.3 g/dL

Q: And the MCV ([2]; Day-5)?
A: 74 fL

Q: What about the RBC count ([2]; Day-5) of the same substance?
A: 5.8e+06 µL⁻¹

Q: And the WBC count ([2]; Day-5)?
A: 10000 µL⁻¹

Q: What about the hemoglobin content ([2]; Day-5) of the same substance?
A: 12.8 g/dL

Q: What about the monocytes ([2]; Day-5) of the same substance?
A: 2.0%

Q: What about the neutrophils ([2]; Day-5) of the same substance?
A: 101%

Q: And the platelet count ([2]; Day-5)?
A: 481 ×100/μL

Q: And the HCT ([2]; Day-14)?
A: 41%

Q: And the MCH ([2]; Day-14)?
A: 22.4 pg

Q: And the MCHC ([2]; Day-14)?
A: 31.4 g/dL

Q: What about the MCV ([2]; Day-14) of the same substance?
A: 72 fL

Q: And the RBC count ([2]; Day-14)?
A: 5.8e+06 µL⁻¹

Q: And the WBC count ([2]; Day-14)?
A: 11000 µL⁻¹

Q: And the hemoglobin content ([2]; Day-14)?
A: 12.8 g/dL

Q: What about the monocytes ([2]; Day-14) of the same substance?
A: 4.0%

Q: And the neutrophils ([2]; Day-14)?
A: 73%

Q: And the platelet count ([2]; Day-14)?
A: 456 ×100/μL

Q: What about the “Change in Kidney weight” value [3] of the same substance?
A: −14%

Q: And the “Change in Liver weight” value [3]?
A: +15%

Q: And the “Change in Spleen weight” value [3]?
A: +62%

Reference: patent publication US20230263822A1, “MODULATION OF FACTOR 11 EXPRESSION” (Ionis Pharmaceuticals, Inc., priority 2008, published 2023)
